Data published in patent publication US20220162163A1, “ALANINE-BASED MODULATORS OF PROTEOLYSIS AND ASSOCIATED METHODS OF USE” (Arvinas Operations, Inc., priority 2015, published 2022).

How the values were obtained:
Type in all cases: cell-based
[1] = molecular target: T1, EZH2 (Homo sapiens, UniProt Q15910); assay: Cellular assay of EZH2 degradation (MDA-MB-231 cells, Western blot); conditions: EZH2, MDA-MB-231 cells, PROTAC concentration 3 μM, relative to DMSO control
T1 construct: endogenous in cells; host or cells: MDA-MB-231
T1 sequence (Q15910 whole entry): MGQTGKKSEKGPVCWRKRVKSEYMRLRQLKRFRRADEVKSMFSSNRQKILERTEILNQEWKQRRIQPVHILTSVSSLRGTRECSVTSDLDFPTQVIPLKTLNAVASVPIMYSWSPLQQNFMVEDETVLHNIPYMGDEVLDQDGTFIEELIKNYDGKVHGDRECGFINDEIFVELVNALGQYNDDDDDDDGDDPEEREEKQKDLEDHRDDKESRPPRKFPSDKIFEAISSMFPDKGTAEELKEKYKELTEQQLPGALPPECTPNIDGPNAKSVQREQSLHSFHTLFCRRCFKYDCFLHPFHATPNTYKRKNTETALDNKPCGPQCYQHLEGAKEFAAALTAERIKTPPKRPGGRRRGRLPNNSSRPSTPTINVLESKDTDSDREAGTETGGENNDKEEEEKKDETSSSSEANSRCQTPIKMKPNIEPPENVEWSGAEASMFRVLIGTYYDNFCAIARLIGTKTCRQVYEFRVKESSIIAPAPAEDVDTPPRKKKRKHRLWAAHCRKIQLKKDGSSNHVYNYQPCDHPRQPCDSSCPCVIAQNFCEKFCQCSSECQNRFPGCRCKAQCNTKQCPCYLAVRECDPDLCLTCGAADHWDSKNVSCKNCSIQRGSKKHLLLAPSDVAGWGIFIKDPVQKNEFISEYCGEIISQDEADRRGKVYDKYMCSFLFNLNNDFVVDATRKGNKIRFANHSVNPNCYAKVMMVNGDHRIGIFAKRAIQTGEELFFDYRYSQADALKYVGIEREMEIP
T1 sequence (O75530 whole entry partner): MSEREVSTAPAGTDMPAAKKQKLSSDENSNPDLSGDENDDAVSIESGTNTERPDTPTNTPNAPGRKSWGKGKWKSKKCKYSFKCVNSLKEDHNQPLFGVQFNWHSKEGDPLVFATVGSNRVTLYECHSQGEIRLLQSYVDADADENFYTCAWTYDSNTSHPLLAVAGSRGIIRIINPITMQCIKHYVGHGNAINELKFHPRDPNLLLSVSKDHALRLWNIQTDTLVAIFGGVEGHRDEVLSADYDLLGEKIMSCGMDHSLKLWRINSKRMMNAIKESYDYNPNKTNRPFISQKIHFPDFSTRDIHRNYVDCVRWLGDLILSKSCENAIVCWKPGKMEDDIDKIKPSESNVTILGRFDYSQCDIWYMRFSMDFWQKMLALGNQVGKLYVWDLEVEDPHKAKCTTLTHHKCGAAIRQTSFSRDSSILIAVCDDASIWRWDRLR
T1 sequence (Q15022 whole entry partner): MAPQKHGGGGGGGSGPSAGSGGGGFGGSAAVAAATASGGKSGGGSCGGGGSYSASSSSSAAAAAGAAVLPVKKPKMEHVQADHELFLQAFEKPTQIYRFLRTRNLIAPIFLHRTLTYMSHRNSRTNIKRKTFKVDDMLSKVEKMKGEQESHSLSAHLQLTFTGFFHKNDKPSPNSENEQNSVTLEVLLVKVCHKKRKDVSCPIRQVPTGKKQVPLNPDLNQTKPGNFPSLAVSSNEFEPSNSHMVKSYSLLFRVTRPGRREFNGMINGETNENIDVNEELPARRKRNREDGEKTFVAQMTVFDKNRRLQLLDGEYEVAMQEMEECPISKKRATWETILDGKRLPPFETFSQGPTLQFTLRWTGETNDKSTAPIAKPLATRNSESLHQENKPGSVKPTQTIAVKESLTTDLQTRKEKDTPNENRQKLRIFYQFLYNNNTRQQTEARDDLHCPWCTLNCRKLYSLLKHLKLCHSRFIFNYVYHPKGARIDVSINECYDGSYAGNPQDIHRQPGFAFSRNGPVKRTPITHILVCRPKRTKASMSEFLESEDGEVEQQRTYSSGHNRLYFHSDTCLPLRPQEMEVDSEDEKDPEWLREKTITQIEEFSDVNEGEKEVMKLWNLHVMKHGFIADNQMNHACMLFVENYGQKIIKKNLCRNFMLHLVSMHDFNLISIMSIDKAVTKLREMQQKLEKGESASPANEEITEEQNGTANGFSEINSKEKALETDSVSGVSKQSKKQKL
Procedure: Protocol of the Cellular Assay of EZH2 Degradation (MDA-MB-231 Cells, Western Blot).
MDA-MB-231 cells were plated at 10,000 cells per well in 6 well plates, 2 ml/well in DMEM+10% Fetal Bovine Serum. Cells were allowed to grow for 3 days at 37 degrees C. Cells were dosed with PROTACs. On day 3 and day 7 after dosing, cells were harvested and lysed with RIPA buffer. Lysed cells were transferred to eppendorf tubes, and each lysate was sonicated and then spinned in microfuge for 15 minutes at 20,000×g at 4 degrees C. Supernatant was transferred to a clean tube, and protein concentration was quantitated using the Pierce BCA Protein Assay kit (cat #23225). Lysate concentrations were adjusted to 1 microgram/microliter in lysis buffer. For Western blot samples were loaded in 4×LDS buffer, 10 microliters/lane, onto Noxex NuPage 4-12% Bis-Tris Midi Gel […]×26 well.
Gels were run on BioRad power source Model 1000/500, at 200V constant voltage for 1 hour. Gels were then transferred onto a nitrocellulose membrane using an iBlot2 transfer apparatus from Life Technologies. Transfers were done on Program 0 and blocked for 1 hour in TBS-T (Tris Buffered Saline with 0.05% Tween 20)+5% BSA (Bovine Serum Albumin). Block solution was decanted, and the primary antibody solutions were added (EZH2-Cell Signaling #5246S; tri-methyl-Histone H3-Cell Signaling #9733S; Histone H3-Cell Signaling #4499; all diluted 1:1000 in 20 ml TBS-T+5% BSA). The preparation was placed in cold room (4 degrees C.) overnight on rocker platform, after which the antibody solution was decanted. The preparation was washed 3 times in TBS-T for 10 minutes each, and anti-rabbit secondary antibody (Cell Signaling #7074S), diluted 1:20,000 in TBS-T+5% BSA, was added. This was followed by incubating for 1 hour at room temperature with gentle rocking and washing 3 times in TBS-T. To develop blots SuperSignal™ West Femto Maximum Sensitivity Substrate (Life Technologies Catalog number: 34095) solution was applied for 5 minutes. Blots were imaged on BioRad ChemiDoc Imager using the “Chemi Hi Sensitivity” protocol. Bands were quantitated using Image Lab software v 5.2.1.

[2] = molecular target: T2, JNK1 (Homo sapiens, UniProt P45983); assay: Cellular assay of JNK degradation (A549 cells, Western blot), JNK1; conditions: for JNK1 degradation range: PROTAC concentration 1 μM, relative to DMSO control; for DC50: read-out: JNK1 DC50 range
T2 construct: A549 lung adenocarcinoma cells were purchased from ATCC and cultured in RPMI1640 Medium; endogenous in cells; host or cells: A549
T2 sequence (P45983 whole entry): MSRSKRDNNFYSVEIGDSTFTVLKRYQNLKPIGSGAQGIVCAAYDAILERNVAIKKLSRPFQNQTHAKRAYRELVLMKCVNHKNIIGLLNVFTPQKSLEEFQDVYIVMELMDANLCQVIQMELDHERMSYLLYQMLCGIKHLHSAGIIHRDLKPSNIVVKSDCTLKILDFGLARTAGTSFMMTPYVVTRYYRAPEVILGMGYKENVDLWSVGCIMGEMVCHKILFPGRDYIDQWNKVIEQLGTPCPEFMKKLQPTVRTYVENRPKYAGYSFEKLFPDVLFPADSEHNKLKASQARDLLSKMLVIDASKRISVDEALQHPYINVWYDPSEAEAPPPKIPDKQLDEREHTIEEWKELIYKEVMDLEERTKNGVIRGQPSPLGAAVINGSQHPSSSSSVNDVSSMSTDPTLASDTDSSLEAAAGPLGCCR
Procedure: (§1) Protocol of the cellular assay of JNK degradation (A549 cells, Western blot). A549 lung adenocarcinoma cells were purchased from ATCC and cultured in RPMI1640 Medium (Gibco) supplemented with 10% Fetal Bovine Serum (Gibco). […] Cells were stimulated with PMA (Phorbol 12-myristate 13-acetate, Sigma) for 1 hour before harvesting. Cells were lysed in Cell Signaling lysis buffer supplemented with protease inhibitors (Thermo). The lysates were centrifuged at 20,000×g for 15 minutes to clarify, and protein concentration was determined by BCA (Pierce). Equal amounts of protein (5 micrograms) were separated by SDS-PAGE and transferred onto nitrocellulose membranes. The mermbranes were probed with antibodies against SAPK/JNK (Cell Signaling #9252), phospho-c-Jun (Cell Signaling #3270), MDM2 (Sigma M4308) and p53 (Cell Signaling #2527). HRP-conjugated anti-rabbit and anti-mouse secondary antibodies were from Cell Signaling. The bands were visualized with SuperSignal West Femto Substrate (Thermo). Quantitation was done using Image Lab Software v5.2.1.

[3] = molecular target: T3, JNK2 (Homo sapiens, UniProt P45984); assay: Cellular assay of JNK degradation (A549 cells, Western blot), JNK2; conditions: for JNK2 degradation range: PROTAC concentration 1 μM, relative to DMSO control
T3 construct: A549 lung adenocarcinoma cells were purchased from ATCC and cultured in RPMI1640 Medium; endogenous in cells; host or cells: A549
T3 sequence (P45984 whole entry): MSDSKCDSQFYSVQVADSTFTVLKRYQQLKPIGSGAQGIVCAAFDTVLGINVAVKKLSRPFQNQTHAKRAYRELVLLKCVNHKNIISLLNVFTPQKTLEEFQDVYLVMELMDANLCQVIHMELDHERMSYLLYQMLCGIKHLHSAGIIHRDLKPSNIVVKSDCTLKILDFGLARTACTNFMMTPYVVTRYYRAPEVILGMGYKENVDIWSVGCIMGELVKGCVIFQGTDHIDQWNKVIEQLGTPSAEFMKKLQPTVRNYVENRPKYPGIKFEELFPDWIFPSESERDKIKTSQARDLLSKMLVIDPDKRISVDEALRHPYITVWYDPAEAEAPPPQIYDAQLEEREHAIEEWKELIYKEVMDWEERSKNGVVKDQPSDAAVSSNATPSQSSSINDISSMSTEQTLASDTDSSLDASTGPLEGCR
Procedure: as §1

| Target protein degradation range [1] | JNK1 degradation range [2] | DC50 [2] [nM] | JNK2 degradation range [3] | DC50 ([3]; read-out: JNK2 DC50 range) [nM] | SMILES |
| --- | --- | --- | --- | --- | --- |
| C (degradation between 0% and 30%) |  |  |  |  | CCN(c1cc(-c2ccc(OCCOCCOCCOCCOCCOc3ccc(CCN4CC[C@H]5CCN(C(=O)[C@@H](NC(=O)[C@H](C)NC)C6CCCCC6)[C@H]5C4)cc3)cc2)cc(C(=O)NCc2c(C)cc(C)[nH]c2=O)c1C)C1CCOCC1 (racemic) [Example 8, 5-(4-[[1-(4-[2-[1-[(2S)-2-cyclohexyl-2-[(2S)-2-(methylamino)propanamido]acetyl]-octahydro-1H-pyrrolo[2,3-c]pyridin-6-yl]ethyl]phenyl)-1,4,7,10,13-pentaoxapentadecan-15-yl]oxy]phenyl)-N-[(4,6-dimethyl-2-oxo-1,2-dihydropyridin-3-yl)methyl]-3-[ethyl(oxan-4-yl)amino]-2-methylbenzamide] |
| C (degradation between 0% and 30%) |  |  |  |  | CCN(c1cc(-c2ccc(OCCOCCOCCOc3ccc(CCN4CC[C@H]5CCN(C(=O)[C@@H](NC(=O)[C@H](C)NC)C6CCCCC6)[C@H]5C4)cc3)cc2)cc(C(=O)NCc2c(C)cc(C)[nH]c2=O)c1C)C1CCOCC1 (racemic) [Example 9, 5-[4-(2-[2-[2-(4-[2-[1-[(2S)-2-cyclohexyl-2-[(2S)-2-(methylamino)propanamido]acetyl]-octahydro-1H-pyrrolo[2,3-c]pyridin-6-yl]ethyl]phenoxy)ethoxy]ethoxy]ethoxy)phenyl]-N-[(4,6-dimethyl-2-oxo-1,2-dihydropyridin-3-yl)methyl]-3-[ethyl(oxan-4-yl)amino]-2-methylbenzamide] |
| B (degradation between 30% and 60%) |  |  |  |  | CCN(c1cc(-c2ccc(OCCOCCOCCOc3ccc(-c4csc([C@@H]5CCCN5C(=O)[C@@H](NC(=O)[C@H](C)NC)C5CCCCC5)n4)c4ccccc34)cc2)cc(C(=O)NCc2c(C)cc(C)[nH]c2=O)c1C)C1CCOCC1 [Example 10, 5-[4-[2-(2-[2-[(4-[2-[(2S)-1-[(2S)-2-cyclohexyl-2-[(2S)-2-(methylamino)propanamido]acetyl]pyrrolidin-2-yl]-1,3-thiazol-4-yl]naphthalen-1-yl)oxy]ethoxy]ethoxy)ethoxy]phenyl]-N-[(4,6-dimethyl-2-oxo-1,2-dihydropyridin-3-yl)methyl]-3-[ethyl(oxan-4-yl)amino]-2-methylbenzamide] |
| B (degradation between 30% and 60%) |  |  |  |  | CCN(c1cc(-c2ccc(OCCOCCOCCOCCOCCOc3ccc(-c4csc([C@@H]5CCCN5C(=O)[C@@H](NC(=O)[C@H](C)NC)C5CCCCC5)n4)c4ccccc34)cc2)cc(C(=O)NCc2c(C)cc(C)[nH]c2=O)c1C)C1CCOCC1 [Example 11, 5-(4-[[1-(4-[2-[(2S)-1-[(2S)-2-cyclohexyl-2-[(2S)-2-(methylamino)propanamido]acetyl]pyrrolidin-2-yl]-1,3-thiazol-4-yl]naphthalen-1-yl)-1,4,7,10,13-pentaoxapentadecan-15-yl]oxy]phenyl)-N-[(4,6-dimethyl-2-oxo-1,2-dihydropyridin-3-yl)methyl]-3-[ethyl(oxan-4-yl)amino]-2-methylbenzamide] |
|  | A (degradation more than 60%) | 1 to 100 | A (degradation more than 60%) | 100 to 1000 | CN[C@@H](C)C(=O)N[C@H](C(=O)N1CCC[C@H]1c1nc(-c2ccc(OCCOCCO[C@H]3CC[C@H](Nc4nccc(-c5cnn(Cc6ccccc6)c5N(C)C)n4)CC3)c3ccccc23)cs1)C1CCCCC1 [Example 13, (2S)—N-[(1S)-1-cyclohexyl-2-oxo-2-[(2S)-2-(4-[4-[2-(2-[[(1r,4r)-4-([4-[1-benzyl-5-(dimethylamino)-1H-pyrazol-4-yl]pyrimidin-2-yl]amino)cyclohexyl]oxy]ethoxy)ethoxy]naphthalen-1-yl]-1,3-thiazol-2-yl)pyrrolidin-1-yl]ethyl]-2-(methylamino)propanamide] |
|  | A (degradation more than 60%) | 1 to 100 | B (degradation between 30% and 60%) |  | CN[C@@H](C)C(=O)N[C@H](C(=O)N1CCC[C@H]1c1nc(-c2ccc(OCCOCCOCCOC3CCC(Nc4nccc(-c5cnn(Cc6ccccc6)c5N(C)C)n4)CC3)c3ccccc23)cs1)C1CCCCC1 (stereo partly drawn) [Example 14, (S)—N—((S)-2-((S)-2-(4-(4-(2-(2-(2-((1r,4r)-4-(4-(1-benzyl-5-(dimethylamino)-1H-pyrazol-4-yl)pyrimidin-2-ylamino)cyclohexyloxy)ethoxy)ethoxy)ethoxy)naphthalen-1-yl)thiazol-2-yl)pyrrolidin-1-yl)-1-cyclohexyl-2-oxoethyl)-2-(methylamino)propanamide] |
|  | A (degradation more than 60%) | 100 to 1000 | B (degradation between 30% and 60%) |  | CN[C@@H](C)C(=O)N[C@H](C(=O)N1CCC[C@H]1c1nc(-c2ccc(OCCOCCOCCOCCOC3CCC(Nc4nccc(-c5cnn(Cc6ccccc6)c5N(C)C)n4)CC3)c3ccccc23)cs1)C1CCCCC1 (stereo partly drawn) [Example 15, (2S)—N-[(1S)-1-cyclohexyl-2-oxo-2-[(2S)-2-[4-[4-([1-[(1r,4r)-4-([4-[1-benzyl-5-(dimethylamino)-1H-pyrazol-4-yl]pyrimidin-2-yl]amino)cyclohexyl]-1,4,7,10-tetraoxadodecan-12-yl]oxy)naphthalen-1-yl]-1,3-thiazol-2-yl]pyrrolidin-1-yl]ethyl]-2-(methylamino)propanamide] |
